Patent publication US8415469B2, “Compounds and methods for kinase modulation, and indications therefor” (Plexxikon Inc., priority 2005, dated 2013)

How the values were obtained:
Format in all cases: biochemical
[1] = biological target: T1, Kdr (Homo sapiens, UniProt P35968); assay: Z'-Lyte FRET kinase assay (Invitrogen), Kdr; details: read-out: IC50, activity toward kinase Kdr
T1 construct: purchased Invitrogen (assay run by Invitrogen)

[2] = biological target: T2, MAP2K1 (Homo sapiens, UniProt Q02750); assay: Z'-Lyte FRET kinase assay (Invitrogen), MAP2K1; details: read-out: IC50, activity toward kinase MAP2K1
T2 construct: purchased Invitrogen (assay run by Invitrogen)
T2 sequence (Q02750 whole entry): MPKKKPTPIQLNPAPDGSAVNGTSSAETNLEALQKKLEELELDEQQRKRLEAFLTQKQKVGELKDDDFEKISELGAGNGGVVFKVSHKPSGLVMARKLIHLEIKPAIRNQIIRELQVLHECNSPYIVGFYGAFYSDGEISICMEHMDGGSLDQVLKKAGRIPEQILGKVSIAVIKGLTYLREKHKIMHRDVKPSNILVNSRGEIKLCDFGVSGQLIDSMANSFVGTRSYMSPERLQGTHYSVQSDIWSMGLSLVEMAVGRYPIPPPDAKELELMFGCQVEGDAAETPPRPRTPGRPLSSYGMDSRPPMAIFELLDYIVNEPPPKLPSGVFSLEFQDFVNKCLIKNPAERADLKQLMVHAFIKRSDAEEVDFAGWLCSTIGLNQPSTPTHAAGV

[3] = biological target: T3, MAPKAPK2 (Homo sapiens, UniProt P49137); assay: Z'-Lyte FRET kinase assay (Invitrogen), MAPKAPK2; details: read-out: IC50, activity toward kinase MAPKAPK2
T3 construct: purchased Invitrogen (assay run by Invitrogen)
T3 sequence (P49137 whole entry): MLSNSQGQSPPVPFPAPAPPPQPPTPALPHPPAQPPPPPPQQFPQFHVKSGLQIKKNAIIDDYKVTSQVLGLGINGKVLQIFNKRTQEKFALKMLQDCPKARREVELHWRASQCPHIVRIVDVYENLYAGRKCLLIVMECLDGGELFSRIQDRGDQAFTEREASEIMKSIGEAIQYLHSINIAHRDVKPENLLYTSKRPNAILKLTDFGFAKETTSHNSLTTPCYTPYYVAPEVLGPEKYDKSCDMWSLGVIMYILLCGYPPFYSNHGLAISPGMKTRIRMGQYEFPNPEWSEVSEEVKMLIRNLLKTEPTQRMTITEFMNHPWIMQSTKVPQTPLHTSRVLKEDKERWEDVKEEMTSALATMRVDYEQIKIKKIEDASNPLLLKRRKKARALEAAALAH
From the text: The effect of potential modulators of kinase activity can be measured in a variety of different assays known in the art. For example, direct radiometric, indirect FRET or AlphaScreen assays may be used to assess the level of phosphorylation of a substrate in the presence of test compounds in order to determine the inhibitory affect of the compound on the kinase. Invitrogen (Carlsbad, Calif.) uses a FRET based assay for Btk, EGFR, EphB2, Flt3, lrak4, Kdr, MAP2K1, MAPKAPK2, PDGFRB, PKC theta, Stk6 and Yes. For these assays, compounds of the invention were screened by Invitrogen using Z′-Lyte™ kinase assay.
Briefly, the Invitrogen kinase assay involves use of a specific peptide substrate optimized for each kinase, containing a fluorophore at each end that make up the FRET pair. The peptide sensitivity to proteolytic cleavage depends on phosphorylation of the peptide. Non-phosphorylated peptide is cleaved by a protease while peptide phosphorylated by the kinase is not cleaved. Cleavage of the peptide disrupts the FRET between the donor (coumarin) and acceptor (fluorescein) fluorophores, resulting in an increase in the ratio of donor emission to acceptor emission. The emission ratio of coumarin to fluorescein is used to assess the reaction progress. The extent of phosphorylation is determined from the emission ratio, which is low when the kinase is active (phosphorylated peptide is not cleaved, FRET pair connected) or higher for inhibited kinase (non-phosphorylated peptide is cleaved, FRET pair separated). Thus, the assay involves a kinase reaction in the presence of varying concentrations of a given compound, a development reaction with site specific protease, and detection of the fluorescent emission ratio of coumarin and fluorscein. […] Reaction conditions for each kinase are determined to provide optimal reaction times, incubation temperature, kinase and ATP concentrations. Test samples are made up in 1× kinase buffer (50 mM HEPES pH 7.5, 50 mM MgCl2, 5 mM EGTA, 0.05% BRIJ-35) and compound at desired concentration prepared in DMSO such that the final DMSO is 1%. […] Typically, assay plates are prepared to 10 μl final volume per sample, adding 2.5 μl of compound at 4× the desired concentration in 4% DMSO (serial dilution of compound provides concentration curve), 5 μl of the desired kinase mixed with Z′-LYTE™ peptide substrate (2× in 2× kinase buffer, final peptide at 2 μM), and 2.5 μl of 4×ATP solution. All kinase except for MAP2K1 were at 10 μM ATP in the kinase reaction, while MAP2K1 was at 100 μM. Samples are mixed and the kinase reaction is incubated 1 hour at room temperature, after which 5 μl of development solution is added and mixed. After incubation for another 1 hour at room temperature, 5 μl of stop reagent is added to each sample and mixed. The fluorescence signals are measured to determine the emission ratio.

[4] = biological target: T4, PKC theta (Homo sapiens, UniProt Q04759); assay: Z'-Lyte FRET kinase assay (Invitrogen), PKC theta; details: read-out: IC50, activity toward kinase PKC theta
T4 construct: purchased Invitrogen (Carlsbad, Calif.), screening service
Outline: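 10 μM ATP, 2 μM peptide, 1% DMSO final; HEPES pH 7.5 buffer with MgCl2/EGTA/BRIJ-35. Kinase rxn 1 h RT, protease development 1 h RT, stop, read donor/acceptor ratio. Compound titrated.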

[5] = biological target: T5, Stk6 (Homo sapiens, UniProt O14965); assay: Z'-Lyte FRET kinase assay (Invitrogen), Stk6; details: read-out: IC50, activity toward kinase Stk6
T5 construct: purchased Invitrogen (Carlsbad, Calif.), screening service
T5 sequence (O14965 1-403): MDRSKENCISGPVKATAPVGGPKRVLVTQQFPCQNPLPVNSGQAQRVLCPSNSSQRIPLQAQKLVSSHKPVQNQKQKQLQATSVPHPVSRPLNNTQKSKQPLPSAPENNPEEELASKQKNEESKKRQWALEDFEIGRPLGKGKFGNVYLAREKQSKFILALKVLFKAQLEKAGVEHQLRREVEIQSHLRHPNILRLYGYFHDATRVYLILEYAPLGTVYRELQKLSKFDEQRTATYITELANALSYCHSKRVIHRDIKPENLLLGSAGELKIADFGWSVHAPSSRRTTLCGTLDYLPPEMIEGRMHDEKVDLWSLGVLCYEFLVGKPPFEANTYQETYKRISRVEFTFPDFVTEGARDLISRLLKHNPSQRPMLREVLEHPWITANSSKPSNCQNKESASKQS

[6] = biological target: Akt3 (Homo sapiens, UniProt Q9Y243); assay: AlphaScreen kinase assay, Akt3; details: read-out: IC50, activity toward kinase Akt3
Outline: (§1)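 Eight concentrations per compound (1:3 serial dilution of 20 mM DMSO stock) were tested. Read-out: AlphaScreen signal from phospho-antibody acceptor and streptavidin donor beads bound to biotinylated peptide substrate, reduced on kinase inhibition.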

[7] = biological target: Gsk3β (Homo sapiens, UniProt P49841); assay: AlphaScreen kinase assay, Gsk3β; details: read-out: IC50, activity toward kinase Gsk3β
Outline: as §1

[8] = biological target: MAP4K4 (Homo sapiens, UniProt O95819); assay: AlphaScreen kinase assay, MAP4K4; details: read-out: IC50, activity toward kinase MAP4K4
Chain of MAP4K4 (O95819 whole entry): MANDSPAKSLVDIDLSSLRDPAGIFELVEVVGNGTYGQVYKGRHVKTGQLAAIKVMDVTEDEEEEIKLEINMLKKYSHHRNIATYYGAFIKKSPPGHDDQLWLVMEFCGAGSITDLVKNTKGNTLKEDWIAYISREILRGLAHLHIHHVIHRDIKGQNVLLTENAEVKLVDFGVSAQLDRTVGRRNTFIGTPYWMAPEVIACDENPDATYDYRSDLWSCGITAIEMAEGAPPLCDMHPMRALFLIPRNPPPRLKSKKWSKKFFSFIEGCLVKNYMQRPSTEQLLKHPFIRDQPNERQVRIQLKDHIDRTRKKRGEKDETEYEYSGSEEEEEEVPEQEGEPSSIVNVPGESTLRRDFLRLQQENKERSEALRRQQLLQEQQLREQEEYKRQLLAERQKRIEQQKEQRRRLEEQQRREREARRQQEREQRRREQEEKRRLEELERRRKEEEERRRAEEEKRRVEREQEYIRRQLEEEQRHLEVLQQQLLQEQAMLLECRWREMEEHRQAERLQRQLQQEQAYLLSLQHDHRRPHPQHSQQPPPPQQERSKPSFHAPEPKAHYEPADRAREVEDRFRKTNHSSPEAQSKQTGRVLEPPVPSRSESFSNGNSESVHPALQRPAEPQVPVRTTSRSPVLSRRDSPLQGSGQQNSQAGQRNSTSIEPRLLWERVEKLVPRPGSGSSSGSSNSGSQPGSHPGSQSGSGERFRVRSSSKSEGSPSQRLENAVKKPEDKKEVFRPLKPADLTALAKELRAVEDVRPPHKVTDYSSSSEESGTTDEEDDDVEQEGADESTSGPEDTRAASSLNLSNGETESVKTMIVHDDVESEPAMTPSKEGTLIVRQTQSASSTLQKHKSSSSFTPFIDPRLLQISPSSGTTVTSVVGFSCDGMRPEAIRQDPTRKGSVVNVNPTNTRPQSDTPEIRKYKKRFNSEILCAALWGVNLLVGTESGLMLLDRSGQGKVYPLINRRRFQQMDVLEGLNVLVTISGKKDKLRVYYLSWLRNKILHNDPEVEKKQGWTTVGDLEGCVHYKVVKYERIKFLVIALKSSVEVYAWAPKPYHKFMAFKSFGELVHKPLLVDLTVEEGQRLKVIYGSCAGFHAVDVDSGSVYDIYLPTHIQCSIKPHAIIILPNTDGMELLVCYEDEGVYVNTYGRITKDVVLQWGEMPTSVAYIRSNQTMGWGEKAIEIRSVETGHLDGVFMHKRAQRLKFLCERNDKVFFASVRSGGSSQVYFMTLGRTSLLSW

[9] = biological target: T6, IKK beta (Homo sapiens, UniProt O14920); assay: AlphaScreen kinase assay, IKK beta; details: read-out: IC50, activity toward kinase IKK beta
T6 sequence (O14920 1-756): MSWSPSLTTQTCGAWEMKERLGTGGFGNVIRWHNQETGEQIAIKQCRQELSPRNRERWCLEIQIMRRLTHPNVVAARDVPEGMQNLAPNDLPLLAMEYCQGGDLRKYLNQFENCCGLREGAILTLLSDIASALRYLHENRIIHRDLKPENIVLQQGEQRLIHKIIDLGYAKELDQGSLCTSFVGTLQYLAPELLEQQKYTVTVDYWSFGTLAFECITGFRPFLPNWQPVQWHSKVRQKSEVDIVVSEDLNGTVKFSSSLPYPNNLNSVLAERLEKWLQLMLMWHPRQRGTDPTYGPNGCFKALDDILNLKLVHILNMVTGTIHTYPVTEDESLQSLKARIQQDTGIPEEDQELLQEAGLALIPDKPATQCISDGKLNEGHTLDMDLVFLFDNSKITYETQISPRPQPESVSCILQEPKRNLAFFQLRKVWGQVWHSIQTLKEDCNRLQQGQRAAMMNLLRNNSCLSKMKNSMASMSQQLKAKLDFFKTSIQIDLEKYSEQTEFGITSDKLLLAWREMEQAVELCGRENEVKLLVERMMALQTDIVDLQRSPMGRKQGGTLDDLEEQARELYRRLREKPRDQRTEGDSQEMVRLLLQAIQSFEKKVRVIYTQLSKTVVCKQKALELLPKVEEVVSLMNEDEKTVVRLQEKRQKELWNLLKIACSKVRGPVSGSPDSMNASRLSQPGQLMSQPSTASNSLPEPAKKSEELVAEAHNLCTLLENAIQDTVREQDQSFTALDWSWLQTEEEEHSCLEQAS

[10] = biological target: ROCK1 (Homo sapiens, UniProt Q13464); assay: AlphaScreen kinase assay, ROCK1; details: read-out: IC50, activity toward kinase ROCK1
Chain of ROCK1 (Q13464 whole entry): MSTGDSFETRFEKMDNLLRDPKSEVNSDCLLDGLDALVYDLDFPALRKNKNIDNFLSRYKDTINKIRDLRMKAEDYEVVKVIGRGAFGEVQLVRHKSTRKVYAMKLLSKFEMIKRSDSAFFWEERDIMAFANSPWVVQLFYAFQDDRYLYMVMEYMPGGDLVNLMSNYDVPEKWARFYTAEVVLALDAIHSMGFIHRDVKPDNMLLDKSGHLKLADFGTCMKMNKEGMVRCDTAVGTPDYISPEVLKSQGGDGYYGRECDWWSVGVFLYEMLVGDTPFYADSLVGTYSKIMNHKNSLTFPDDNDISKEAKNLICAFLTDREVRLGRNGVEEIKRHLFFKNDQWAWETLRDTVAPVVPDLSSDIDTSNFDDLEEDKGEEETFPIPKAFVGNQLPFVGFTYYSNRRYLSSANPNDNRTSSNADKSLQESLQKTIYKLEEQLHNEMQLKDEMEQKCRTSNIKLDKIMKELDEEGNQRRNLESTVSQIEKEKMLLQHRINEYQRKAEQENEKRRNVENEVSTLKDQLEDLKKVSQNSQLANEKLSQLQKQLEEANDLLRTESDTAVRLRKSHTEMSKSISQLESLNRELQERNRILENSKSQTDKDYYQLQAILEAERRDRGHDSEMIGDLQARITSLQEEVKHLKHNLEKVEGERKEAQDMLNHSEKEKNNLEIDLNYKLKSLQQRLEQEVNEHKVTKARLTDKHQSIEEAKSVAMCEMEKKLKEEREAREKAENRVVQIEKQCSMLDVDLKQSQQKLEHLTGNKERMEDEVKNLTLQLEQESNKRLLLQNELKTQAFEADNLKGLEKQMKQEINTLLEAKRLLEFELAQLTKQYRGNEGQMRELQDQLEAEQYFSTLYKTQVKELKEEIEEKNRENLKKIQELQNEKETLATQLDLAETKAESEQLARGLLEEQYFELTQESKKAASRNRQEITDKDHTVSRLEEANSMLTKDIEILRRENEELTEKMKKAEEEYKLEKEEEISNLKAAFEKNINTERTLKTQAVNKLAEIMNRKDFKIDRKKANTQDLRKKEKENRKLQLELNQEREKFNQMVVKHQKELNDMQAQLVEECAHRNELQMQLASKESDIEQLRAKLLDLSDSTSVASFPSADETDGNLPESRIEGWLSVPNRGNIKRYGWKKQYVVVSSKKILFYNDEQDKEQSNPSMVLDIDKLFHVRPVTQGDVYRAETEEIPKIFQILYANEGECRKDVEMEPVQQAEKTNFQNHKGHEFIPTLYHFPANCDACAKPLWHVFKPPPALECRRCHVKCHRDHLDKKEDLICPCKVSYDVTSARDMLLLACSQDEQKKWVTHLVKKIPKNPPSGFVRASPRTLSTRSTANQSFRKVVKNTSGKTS
From the text: (§2) AlphaScreen assay was used to screen additional kinases. The assay is similarly dependent on the phosphorylation of a peptide substrate. In this assay, an antibody that recognizes phosphorylated substrate is bound to an acceptor bead. The peptide substrate is attached to biotin, which binds to a donor head that contains streptavidin. Thus phosphorylated substrate is bound by antibody and streptavidin, bringing the donor and acceptor heads into close proximity when kinase is not inhibited. The donor produces singlet oxygen which results in emission from the acceptor when they are in close proximity. Conversely, when kinase is inhibited, the donor and acceptor beads are not associated and the emission from the acceptor is reduced.
(§3) AlphaScreen assays were done using compounds dissolved in DMSO to a concentration of 20 mM. The compounds were diluted accordingly to the desired final concentrations in each sample well, using 1:3 serial dilution for a total of 8 concentration points.

[11] = biological target: Syk (Homo sapiens, UniProt P43405); assay: AlphaScreen kinase assay, Syk; details: read-out: IC50, activity toward kinase Syk
From the text: as §2, §3

Measured: IC50

T1 sequence (P35968 20-1356): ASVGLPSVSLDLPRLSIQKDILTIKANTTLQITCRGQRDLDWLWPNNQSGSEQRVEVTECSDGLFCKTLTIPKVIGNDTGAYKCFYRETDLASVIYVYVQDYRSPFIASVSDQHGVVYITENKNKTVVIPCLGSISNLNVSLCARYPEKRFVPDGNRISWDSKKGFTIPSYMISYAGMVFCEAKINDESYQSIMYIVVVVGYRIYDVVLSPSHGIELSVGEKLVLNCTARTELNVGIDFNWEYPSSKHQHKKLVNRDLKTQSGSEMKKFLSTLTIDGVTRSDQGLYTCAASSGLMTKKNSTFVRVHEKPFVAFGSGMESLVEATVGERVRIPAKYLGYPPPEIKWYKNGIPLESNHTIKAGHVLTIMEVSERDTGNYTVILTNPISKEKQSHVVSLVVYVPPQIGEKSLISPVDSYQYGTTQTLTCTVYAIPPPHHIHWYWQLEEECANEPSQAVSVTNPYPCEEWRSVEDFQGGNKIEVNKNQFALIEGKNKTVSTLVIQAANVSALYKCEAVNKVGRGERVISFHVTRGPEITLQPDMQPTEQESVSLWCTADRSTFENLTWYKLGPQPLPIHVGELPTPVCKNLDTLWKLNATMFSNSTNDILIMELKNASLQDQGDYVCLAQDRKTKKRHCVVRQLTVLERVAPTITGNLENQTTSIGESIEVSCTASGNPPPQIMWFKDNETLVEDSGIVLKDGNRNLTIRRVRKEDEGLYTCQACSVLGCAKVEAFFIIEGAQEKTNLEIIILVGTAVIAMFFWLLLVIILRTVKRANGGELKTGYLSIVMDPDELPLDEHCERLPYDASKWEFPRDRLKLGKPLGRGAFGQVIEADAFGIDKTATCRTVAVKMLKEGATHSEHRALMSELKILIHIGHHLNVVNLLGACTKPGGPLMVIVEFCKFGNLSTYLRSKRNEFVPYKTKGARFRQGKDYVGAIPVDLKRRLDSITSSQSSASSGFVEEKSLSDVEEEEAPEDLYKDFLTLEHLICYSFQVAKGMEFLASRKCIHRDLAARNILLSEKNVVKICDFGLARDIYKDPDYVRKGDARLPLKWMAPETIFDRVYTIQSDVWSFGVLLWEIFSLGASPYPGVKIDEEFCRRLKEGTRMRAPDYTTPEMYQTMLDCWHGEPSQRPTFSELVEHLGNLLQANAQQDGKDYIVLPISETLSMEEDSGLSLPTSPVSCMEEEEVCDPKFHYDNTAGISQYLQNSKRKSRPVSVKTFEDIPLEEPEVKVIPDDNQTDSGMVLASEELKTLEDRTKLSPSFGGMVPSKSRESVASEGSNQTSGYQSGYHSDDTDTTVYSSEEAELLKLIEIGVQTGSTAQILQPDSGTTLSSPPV

OCc1cccc(-c2ccnc3[nH]cc(Sc4ccccn4)c23)c1 [Compound P-0057]
≤ 10 µM: all assays above
